The values that follow come from patent publication US10124008B2, “Use of inhibitors of acid sphingomyelinase to treat acquired and inherited retinal degenerations” (Wisconsin Alumni Research Foundation, priority 2014, dated 2018).

Holding throughout (format): cell-based, porcine
In assay [1] the test system is LC3B-II and p62 in primary RPE monolayers. Nature of the assay: Immunoblotting of LC3B-II and p62 in polarized primary RPE monolayers. As to conditions: A2E-laden RPE after mTOR inhibition; TO901317 1 μM 20 h, desipramine 10 μM 3 h. The protocol:
RPE harvested from mouse eyecups were sonicated in lysis buffer with protease inhibitors for 10 min. Primary RPE on TRANSWELL filters were harvested and lysed with NE-PER nuclear and cytoplasmic extraction reagents (Thermo Scientific #78833) according to the manufacturer's recommendation. Protein concentrations were measured with DC assay (BioRad). […] Proteins were then transferred onto nitrocellulose membrane using IBLOT dry transfer system (INVITROGEN), blocked in 5% milk in TBS-T for 1 hour before incubating in primary antibody overnight at 4° C. Membranes were probed with antibodies to LC3B (1:3000, Novus NB600-1384 for pig and 1:500, Sigma L7543 for mouse), p62/SQSTM1 (1:1000, ARP03-GP62-C) and actin (1:5000, Santa Cruz) followed by horseradish peroxidase-conjugated secondary antibodies. Immunoblots were visualized by ECL substrate (Thermo Scientific) and quantified using Image Studio (LI-COR). […] Other drugs used were the mTOR inhibitors Torin 1 and Torin 2 (50 nM and 1.5 μM, respectively, for 2 h, TOCRIS), the vacuolar ATPase inhibitor bafilomycin A1 (100 nM for 2 h, EMD Millipore), the LXRα agonist TO901317 (1 μM for 20 h, Cayman Chemicals), the HDAC6 inhibitor trichostatin A (TSA, 500 nM, 16 h, Sigma) and the ASMase inhibitor desipramine (10 μM for 3 h, Sigma). To depolymerize MTs, cells were treated with 33 μM nocodazole for 30 minutes, followed by cold-treatment (4° C.) for 30 minutes (Kreitzer et al., 2003). At the concentrations and exposure times used, none of these drugs caused alterations in RPE cell morphology or physiology (monitored by TER measurements, ZO-1 and organelle marker staining). […] Conversion of LC3B-I to its lipidated form (LC3B-II) is an indicator of autophagosome biogenesis and p62 levels are a measure of autophagic flux (Klionsky et al., 2012).
For orientation: Immunoblotting shows a protein as a band on a membrane.

For assay [2], the system named is EGFP-LC3-labeled autophagosomes in primary RPE. Nature of the assay: Live imaging of EGFP-LC3 autophagosome trafficking (spinning disk, Boolean gating). As to conditions: desipramine 10 μM for 3 h. Here is the method:
RPE cells were transfected with EGFP-LC3 or tandem fluorescent mRFP-GFP-LC3 (Addgene) using the AMAXA NUCLEOFECTOR II (Lonza). Approximately 1.5 million cells and 5 μg of plasmid DNA were used for each transfection. Cells were plated either on serum-coated glass-bottom dishes (Mattek) or TRANSWELL filters at confluence. Live imaging of autophagosome traffic and autophagic flux were performed on the Revolution XD spinning disk microscopy system (Andor) equipped with the Yokogawa CSU-X1 confocal spinning disk head, Nikon Eclipse Ti inverted microscope surrounded by an Okolab cage incubator, iXon x3 897 EM-CCD camera, Andor laser combiner with four solid state lasers at 405, 488, 561, and 640 nm and corresponding band-pass filter sets (Sutter), and ASI motorized stage with piezo-Z for rapid Z-stack acquisition. Andor IQ2 software was used for image acquisition and Imaris x64 (Bitplane) for image analysis. For live imaging, cells were serum starved for 2 h to induce autophagy and rapid z-stacks were acquired using the 100×1.49 NA Apo TIRF objective (Nikon) for ˜50 frames at 37° C. Trafficking data was collected from three separate transfections for a total of at least 12-30 movies captured for treatment. During image acquisition care was taken to maintain the same laser power, exposure and electron-multiplying gain settings. Trafficking analysis was carried out using the Spots and Tracks modules of the Imaris software (Liu et al., 2010). After background subtraction (using the background subtraction algorithm and identical automatic threshold for all images) and smoothing (Gaussian algorithm with identical threshold settings for all images), Spots and Tracks algorithms were used to identify vesicles and follow them through time and cell-space to obtain total track length and track displacement. […] Data were analyzed using either a two-tailed t-test or one-way ANOVA followed by Bonferroni or Dunnett's post-tests (GraphPad PRISM). Unless otherwise stated, data are presented as Mean±S.E.M. of ≥3 independent experiments, with 3 to 4 replicates per condition per experiment. […] Regions were defined by: minimum or maximum track length, minimum or maximum displacement and a slope of 0.5 (displacement divided by length). Tracks with slope <0.5 were taken as less straight (region 2) than those with slope of >0.5 (region 3). Tracks within each region are represented as a percent of total number of tracks in Tables 1 and 2. One-way ANOVA or t-tests were used to compare regions between treatment groups. […] To examine the efficiency of autophagosome transport, Spots and Tracks algorithms in Imaris were used to calculate how far each autophagosome traveled (track displacement length) as a function of the movement required to travel that distance (total track length) (Liu et al., 2010).

For assay [3], the system named is primary RPE monolayers. In words: Lysosome exocytosis (surface LAMP2) after 10% normal human serum. As to conditions: RPE with A2E, complement attack; short treatment with desipramine. The protocol:
Cells were rinsed in recording medium (HBSS with 4.5 g/L glucose, 20 mM HEPES) and incubated with ionomycin or […] normal human serum (Quidel) for 10 min at 37° C. Filters were immediately transferred to ice and analyzed for surface LAMP2 or β-hex activity (see below).
Cells were stained with mouse monoclonal antibody to the lumenal domain of Lamp2 (Serotec, MCA2558, 1:500) (48) or C5b-9 (Novus, NBP1-05120, 1:100) at 4° C. for 30 min. The antibody was diluted in PBS supplemented with Ca^2+ and Mg^2++1% BSA. Cells were then fixed with 2% PFA for 5 min on ice, permeabilized, and stained for ZO-1 as detailed above. Alexa-conjugated secondary antibodies (INVITROGEN) were used at 1:500 for 30 min. Cells were imaged by confocal microscopy (Andor Revolution XD) using a 60× 1.4 NA oil objective. For each set of experiments, the laser power, voltage and offset were identical for a given fluorophore. Quantification of Lamp2 staining was performed by obtaining the total fluorescence using the surface tool in Imaris (Bitplane).

The mark [4] stands for this setting: percent of total EGFP-LC3 tracks, serum-starved RPE.

Turning to `CNCCCN1c2ccccc2CCc2ccccc21` [desipramine], in assay [1], the “LC3B-II levels / autophagosome biogenesis (immunoblot)” value was “increased LC3B-II levels in RPE with A2E comparable to those in control cells” and the “p62 levels / autophagic flux (immunoblot)” value is recorded as “decreased p62 levels in cells with A2E”. For the same compound, in assay [2] (RPE cells with A2E), the “number of motile tracks and long-range displacement of autophagosomes” value is “increased both the number of motile tracks and long-range displacement of autophagosomes”. For the same compound, in assay [2] (setting [4]), the “Region 1 (R1) (D <2.5 μm, L <10 μm)” value is listed as 84.28% and the “Region 3 (R3) (L >10 μm, Slope >0.5 μm)” value came to 7.93%. For the same compound, the lysosome exocytosis result in assay [3] is “restored lysosome exocytosis”.
